Patent US8940896B2, “Tetra-cyclic carboline derivatives useful in the inhibition of angiogenesis” (PTC Therapeutics, Inc., priority 2004, dated 2015)

System: VEGF
Assay: Hypoxia-inducible endogenous VEGF expression, VEGF ELISA assay
Assay type: cell-based
Settings: HeLa cells, hypoxic conditions (1% O2, 5% CO2), VEGF in conditioned media
Procedure: The ability of the compounds of the invention to modulate hypoxia-inducible endogenous VEGF expression may be analyzed as follows. VEGF protein levels may be monitored by an ELISA assay (R&D Systems). Briefly, HeLa cells may be cultured for 24-48 hours under hypoxic conditions (1% O2, 5% CO2, balanced with nitrogen) in the presence or absence of a compound of the invention. The conditioned media may then be assayed by ELISA, and the concentration of VEGF calculated from the standard ELISA curve of each assay.
A dose-response analysis may be performed using the ELISA assay and conditions described above. The conditions for the dose-response ELISA are analogous to those described above. A series of, e.g., seven different concentrations may be analyzed. In parallel, a dose-response cytotoxicity assay may be performed using CellTiter Glo (Promega) under the same conditions as the ELISA to ensure that the inhibition of VEGF expression was not due to the cytotoxicity. Dose-response curves may be plotted using percentage inhibition versus concentration of the compound, and EC50 and CC50 values may be generated for each compound with the maximal inhibition set as 100% and the minimal inhibition as 0%.

| Compound | EC50 |
| --- | --- |
| COc1ccc(C2c3[nH]c4ccc(Br)cc4c3CC3C(=O)N(C4CCCCC4)C(=S)N32)cc1 (stereo not shown) [Compound 186] | < 8 nM |
| COc1ccc(C2c3[nH]c4ccc(Br)cc4c3CC3C(=O)N(C4CCCCC4)C(=S)N32)cc1 (stereo not shown) [Compound 27] | < 8 nM |
| O=C1C2Cc3c([nH]c4ccc(Br)cc34)C(c3ccc4c(c3)OCO4)N2C(=S)N1C1CCCCC1 (stereo not shown) [Compound 9] | 8 to 40 nM |

Same assay, conditions: Homo sapiens, HeLa, HeLa cells, hypoxic conditions (1% O2, 5% CO2), VEGF in conditioned media

| Compound | EC50 |
| --- | --- |
| COc1ccc(C2c3[nH]c4ccc(C)cc4c3CC3C(=O)N(C4CCCCC4)C(=O)N32)cc1 (stereo not shown) [Compound 45] | 200 to 1000 nM |
| CC(C)N1C(=O)C2Cc3c([nH]c4ccc(Br)cc34)C(c3ccc(OCCCn4ccnc4)cc3)N2C1=S (stereo not shown) [Compound 160] | 8 to 40 nM |
| CC(C)N1C(=O)C2Cc3c([nH]c4ccc(Br)cc34)C(c3ccc(-c4cncnc4)cc3)N2C1=S (stereo not shown) [Compound 131] | 8 to 40 nM |
| CN1C(=O)C2Cc3c([nH]c4ccccc34)C(c3cccc(Cl)c3Cl)N2C1=S (stereo not shown) [Compound 75] | > 1000 nM |
| COC(=O)c1cccc(N2C(=O)C3Cc4c([nH]c5ccccc45)C(c4ccc(OC)cc4)N3C2=S)c1 (stereo not shown) [Compound 51] | > 1000 nM |
| O=C1C2Cc3c([nH]c4ccccc34)C(C3CCCCC3)N2C(=S)N1C1CCCC1 (stereo not shown) [Compound 11] | 200 to 1000 nM |
| CN(C)CCCOc1ccc(C2c3[nH]c4ccc(Cl)cc4c3CC3C(=O)N(C4CCCCC4)C(=S)N32)cc1 (stereo not shown) [Compound 114] | 40 to 200 nM |
| CC(C)N1C(=O)C2Cc3c([nH]c4ccc(Br)cc34)C(c3ccc(OCCN4CCOCC4)cc3)N2C1=S (stereo not shown) [Compound 103] | < 8 nM |
| COCCOc1ccc(C2c3[nH]c4ccc(Cl)cc4c3CC3C(=O)N(C)C(=S)N32)cc1 (stereo not shown) [Compound 107] | < 8 nM |
| COc1ccc(C2c3[nH]c4ccc(Br)cc4c3CC3C(=O)N(C(=O)c4ccccc4)C(=S)N32)cc1 (stereo not shown) [Compound 178] | 40 to 200 nM |
| COc1ccc(C2c3[nH]c4ccc(OC)cc4c3CC3C(=O)N(C4CCCCC4)C(=O)N32)cc1 (stereo not shown) [Compound 24] | 40 to 200 nM |
| CC(C)N1C(=O)C2Cc3c([nH]c4ccc(Br)cc34)C(c3ccc(-n4ccnc4)cc3)N2C1=S (stereo not shown) [Compound 128] | 8 to 40 nM |
| CCN1C(=O)C2Cc3c([nH]c4ccc(Br)cc34)C(c3ccc(OC)cc3)N2C1=O (stereo not shown) [Compound 55] | > 1000 nM |
| CC(=O)N1CCN(CCCOc2ccc(C3c4[nH]c5ccc(Br)cc5c4CC4C(=O)N(C(C)C)C(=S)N43)cc2)CC1 (stereo not shown) [Compound 152] | < 8 nM |
| O=C1C2Cc3c([nH]c4ccc(Br)cc34)C(C3CCCCC3)N2C(=S)N1C1CC1 (stereo not shown) [Compound 15] | 200 to 1000 nM |
| CC(C)N1C(=O)C2Cc3c([nH]c4ccc(Br)cc34)C(c3ccc(N4CCOCC4)cc3)N2C1=S (stereo not shown) [Compound 127] | < 8 nM |
| COc1ccc(C2c3[nH]c4ccc(Br)cc4c3CC3C(=O)N(c4ccc(C(F)(F)F)cc4)C(=S)N32)cc1 (stereo not shown) [Compound 163] | < 8 nM |
| CCOC(=O)CN1C(=O)C2Cc3c([nH]c4ccc(Br)cc34)C(c3ccc(OC)cc3)N2C1=S (stereo not shown) [Compound 137] | 8 to 40 nM |
| CCOC(=O)CC(C)N1C(=O)C2Cc3c([nH]c4ccc(Br)cc34)C(c3ccc(OC)cc3)N2C1=S (stereo not shown) [Compound 145] | < 8 nM |
| COc1ccc(C2c3[nH]c4ccc(Br)cc4c3CC3C(=O)N(C4CCCC4)C(=S)N32)cc1 (stereo not shown) [Compound 21] | < 8 nM |
| COc1ccc(C2c3[nH]c4ccc(Br)cc4c3CC3C(=O)N(c4ccc([N+](=O)[O-])cc4)C(=S)N32)cc1 (stereo not shown) [Compound 176] | < 8 nM |
| CC(C)N1C(=O)C2Cc3c([nH]c4ccc(Br)cc34)C(c3ccc(N4CCN(C)CC4)cc3)N2C1=S (stereo not shown) [Compound 129] | 8 to 40 nM |
| CC(C)N1C(=O)C2Cc3c([nH]c4ccc(Br)cc34)C(c3ccc(-c4ccncc4)cc3)N2C1=S (stereo not shown) [Compound 130] | 40 to 200 nM |
| COc1ccc(C2c3[nH]c4ccc(Br)cc4c3CC3C(=O)N(c4ccccc4C)C(=S)N32)cc1 (stereo not shown) [Compound 169] | 40 to 200 nM |
| CC(C)N1C(=O)C2Cc3c([nH]c4ccc(Br)cc34)C(c3ccc(OCCCN4CCCCC4)cc3)N2C1=S (stereo not shown) [Compound 151] | < 8 nM |

| Compound | EC50 |
| --- | --- |
| COc1ccc(C2c3[nH]c4ccc(Br)cc4c3CC3C(=O)N(C4CC4)C(=S)N32)cc1 (stereo not shown) [Compound 17] | < 8 nM |
| COCCN(CCCOc1ccc(C2c3[nH]c4ccc(Br)cc4c3CC3C(=O)N(C(C)C)C(=S)N32)cc1)CCOC (stereo not shown) [Compound 156] | 8 to 40 nM |
| COc1ccc(C2c3[nH]c4ccccc4c3CC3C(=O)N(C)C(=S)N32)c(OC)c1OC (stereo not shown) [Compound 73] | > 1000 nM |
| CN1C(=O)C2Cc3c([nH]c4ccccc34)C(c3cccc(F)c3)N2C1=S (stereo not shown) [Compound 65] | > 1000 nM |
| COc1cccc(C2c3[nH]c4ccccc4c3CC3C(=O)N(C4CCCC4)C(=S)N32)c1 (stereo not shown) [Compound 12] | > 1000 nM |
| O=C1C2Cc3c([nH]c4ccc(Br)cc34)C(c3ccc4c(c3)OCO4)N2C(=S)N1C1CC1 (stereo not shown) [Compound 18] | < 8 nM |
| Cc1ccc2[nH]c3c(c2c1)CC1C(=O)N(C2CCCCC2)C(=O)N1C3c1ccc2c(c1)OCO2 (stereo not shown) [Compound 44] | 200 to 1000 nM |
| CC(C)N1C(=O)C2Cc3c([nH]c4ccc(Cl)cc34)C(c3ccc(-n4ccnc4)cc3)N2C1=O (stereo not shown) [Compound 123] | 200 to 1000 nM |
| Cc1ccccc1N1C(=O)C2Cc3c([nH]c4ccccc34)C(c3cccc(Cl)c3)N2C1=S (stereo not shown) [Compound 37] | > 1000 nM |
| CC(C)N1C(=O)C2Cc3c([nH]c4ccc(Br)cc34)C(c3ccc(-c4ccncc4)cc3)N2C1=O (stereo not shown) [Compound 120] | 200 to 1000 nM |
| COc1ccc(C2c3[nH]c4ccc(Br)cc4c3CC3C(=O)N(c4ccccc4F)C(=S)N32)cc1 (stereo not shown) [Compound 166] | 8 to 40 nM |
| COc1ccc(C2c3[nH]c4ccc(Br)cc4c3CC3C(=O)N(c4cccc(C#N)c4)C(=S)N32)cc1 (stereo not shown) [Compound 146] | < 8 nM |
| COc1ccc(C2c3[nH]c4ccccc4c3CC3C(=O)N(C(C)C)C(=S)N32)cc1 (stereo not shown) [Compound 42] | 200 to 1000 nM |
| CCN1C(=O)C2Cc3c([nH]c4ccc(C)cc34)C(c3ccc(OC)cc3)N2C1=O (stereo not shown) [Compound 33] | 40 to 200 nM |
| O=C1C2Cc3c([nH]c4ccc(Cl)cc34)C(c3ccc4c(c3)OCO4)N2C(=O)N1C1CCCCC1 (stereo not shown) [Compound 31] | 40 to 200 nM |
| COc1ccc(C2c3[nH]c4ccc(C)cc4c3CC3C(=O)N(C4CCCCC4)C(=S)N32)cc1 (stereo not shown) [Compound 23] | 8 to 40 nM |
| O=C1C2Cc3c([nH]c4ccc(Br)cc34)C(c3ccc(OCCN4CCCCC4)cc3)N2C(=S)N1C1CCCCC1 (stereo not shown) [Compound 26] | 40 to 200 nM |
| CC(C)N1C(=O)C2Cc3c([nH]c4ccc(Br)cc34)C(c3ccc(OCCCN4CCOCC4)cc3)N2C1=S (stereo not shown) [Compound 153] | 8 to 40 nM |
| COCCN(C)CCCOc1ccc(C2c3[nH]c4ccc(Br)cc4c3CC3C(=O)N(C(C)C)C(=S)N32)cc1 (stereo not shown) [Compound 158] | < 8 nM |
| O=C1C2Cc3c([nH]c4ccccc34)C(c3cccc(Cl)c3)N2C(=S)N1CCc1ccccc1 (stereo not shown) [Compound 38] | > 1000 nM |
| COc1ccccc1C1c2[nH]c3ccccc3c2CC2C(=O)N(Cc3ccccc3)C(=S)N21 (stereo not shown) [Compound 93] | > 1000 nM |
| CC(C)N1C(=O)C2Cc3c([nH]c4ccc(Cl)cc34)C(c3ccc(N4CCN(C)CC4)cc3)N2C1=O (stereo not shown) [Compound 124] | 40 to 200 nM |
| COCCOc1ccc(C2c3[nH]c4ccc(Cl)cc4c3CC3C(=O)N(C4CCCCC4)C(=S)N32)cc1 (stereo not shown) [Compound 116] | < 8 nM |
| COCCCN1C(=O)C2Cc3c([nH]c4ccccc34)C(c3ccc(OC)cc3)N2C1=S (stereo not shown) [Compound 62] | > 1000 nM |
